Usually pKd stands for the negative decadic logarithm of the Kd, by convention in mol/L.

The values that follow come from patent US8574899B2, “Methods for augmentation collection of placental hematopoietic stem cells and uses thereof” (priority 2010, dated 2013).

One experiment concerns human term placentas. As to the kind of experiment: Yield of TNC, CD34+CD45dim cells and CFU from placenta infused with cell-liberating compounds. It is filed as cell-based. The conditions noted are these: infusion in PBS+, incubated 3-8 hours at 37° C., mean, N = 5; for Yield of colony-forming unit cells (CFU) obtained from placenta related to cord blood unit from the same donor: Methocult 12-14 days. An excerpt:
HSCs and HPCs of the current invention were collected from 30 human term placentas by use of different cell-liberating compounds. Following IRB approval and informed consent, human term placentas were obtained from healthy females following caesarian section. Freshly obtained human placentas, which had been subjected to a conventional cord blood recovery process by draining substantially all of the cord blood from the placenta were used. Cord blood was collected from umbilical cord using standard techniques. Placentas were first infused with an anticoagulant/vasodilator solution (Heparin 30 […] 0.05 mg/ml) at a temperature of 20° C. For infusion procedures, artery and vein of umbilical cord were further cannulated and connected to a reservoir. Pressure in the umbilical cord artery and vein was constantly measured using Baxter pressure transducers (Protocol Systems, Portland, Oreg.). Constant temperature of infusate was maintained using heat exchange unit connected to temperature-controlled water bath. Placentas was infused with 100 ml phosphate buffered saline with additives: heparin (10 […]-acetyl-cysteine (1 mM), gentamycin (0.05 mg/ml) (PBS+) (Experiment 1), or 100 ml PBS+ with 3 mg/L AMD3100 (Sigma, St. Louis, Mo.) (Experiment 2); or 100 ml PBS+ with 1 mg/ml BIO5192 (Experiment 3). BIO5192 was supplied by AnorMED (Vancouver, BC) as a sterile powder and reconstituted in pH 7.0 ethanol:propylene glycol:water (10:36:54). In Experiment 4 100 ml PBS+ with 1 mg/ml Trypsin and 0.1 mg/ml Collagenase I (Sigma, St. Louis, Mo.) was infused into the placental artery or vein. In Experiment 5 100 ml PBS+ with Etoposide (1 mM) was infused into placental vein. […] Following incubation, fluid with cells was drained out of placental vessels and umbilical vein was infused with 100 ml of PBS and later flushed out 4 times via the umbilical artery. Collected cell suspension was centrifuged for 10 min at 1000 rpm, cells at the bottom collected and reconstituted in 10 ml PBS with heparin for further analyses. The following analyses were performed on cord blood and cell suspensions obtained from placenta: number of total nucleated cells determined by flow cytometry, number of CD34^+ and CD34^+CD45^dim cells determined by immunostaining with antibodies to CD34 and CD45, flow cytometry performed using FACS Calibur flow cytometer (BD Biosciences) and FlowJo software. Amounts of colony-forming unit cells were determined by culturing cells for 12-14 days in Methocult® medium (Stem Cell Technologies, Vancouver, Canada) according to manufacturer's instruction. Data obtained from cells collected from placental circulation were normalized to same variables obtained by analyses of cord blood cells (cord blood unit) collected from the corresponding placenta and are presented as percent of cord blood unit.

Another experiment has as its system human placenta. The following applies: 6-8 hour vascular perfusion of placenta; cited from earlier work.
The target in another experiment is CXCR4 (Homo sapiens, UniProt P61073). The conditions noted are these: in vivo; cited from earlier work.
CXCR4, sequence (P61073 whole entry, species assumed): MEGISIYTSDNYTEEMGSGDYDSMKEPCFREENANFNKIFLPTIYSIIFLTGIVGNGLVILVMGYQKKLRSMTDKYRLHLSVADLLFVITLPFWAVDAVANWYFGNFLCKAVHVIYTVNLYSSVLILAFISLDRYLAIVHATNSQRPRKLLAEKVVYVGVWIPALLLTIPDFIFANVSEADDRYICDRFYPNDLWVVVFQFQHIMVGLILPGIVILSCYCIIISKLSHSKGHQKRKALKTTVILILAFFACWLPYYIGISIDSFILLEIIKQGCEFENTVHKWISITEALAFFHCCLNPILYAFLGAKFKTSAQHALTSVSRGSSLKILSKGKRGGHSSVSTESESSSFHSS
In the next experiment the target is α4β1 integrin (Homo sapiens, UniProt P05556+P13612). The following applies: unactivated and activated forms of α4β1 integrin; cited from earlier work.
The target of experiment [1] is T1, α4-subunit of the α4β1 (VLA-4) and α4β7 integrins (Homo sapiens, UniProt P13612).
T1 construct: host or cells: MS patients (in vivo, endogenous protein)
The following applies: MS patients after anti-α4 integrin antibody administration; cited from earlier work.

pKd: −log10 of the molar value. Marks after values point to notes of the source that are not given here. A value given as a limit tells only on which side of the number the result lay.

For `c1cc(CN2CCCNCCNCCCNCC2)ccc1CN1CCCNCCNCCCNCC1` [AMD3100, 1,1′-[1,4-phenylene-bis(methylene)]-bis-1,4,8,11-tetraazacyclotetradecane], in the experiment on human term placentas, the “Yield of colony-forming unit cells (CFU) obtained from placenta related to cord blood unit from the same donor” value (shortened to “Yield of colony-forming unit cells”) was 332* %, the “Yield of CD34+CD45dim cells obtained from placenta related to cord blood unit from the same donor” value (“Yield of CD34+CD45dim cells obtained” below) is recorded as 412* % and the “Yield of TNC obtained from placenta related to cord blood unit from the same donor” value (from here on “Yield of TNC obtained”) amounted to 31%. In the experiment on human placenta, the “Increase of yield of HSC from perfusate as compared to cord blood unit HSCs” value is “several-fold”. Also, the “Mobilization of hematopoietic stem cells from the bone marrow to the bloodstream” value on CXCR4 is “strong inducer of mobilization of hematopoietic stem cells”.
Consider `Cc1ccccc1NC(=O)Nc1ccc(CC(=O)N(C)[C@@H](CC(C)C)C(=O)NCC[C@H](NC(=O)[C@@H]2CCCN2S(=O)(=O)c2cc(Cl)cc(Cl)c2)C(=O)O)cc1` [BIO5192], for which, in the experiment on human term placentas, the “Yield of colony-forming unit cells” value is 423* %, the “Yield of CD34+CD45dim cells obtained” value is given as 524* % and the “Yield of TNC obtained” value was 24%. Also, at α4β1 integrin, the negative-log Kd (pKd) was > 11.00.
Take `COc1cc([C@@H]2c3cc4c(cc3[C@@H](O[C@@H]3O[C@@H]5CO[C@@H](C)O[C@H]5[C@H](O)[C@H]3O)[C@H]3COC(=O)[C@H]23)OCO4)cc(OC)c1O` [Etoposide]: in the experiment on human term placentas, the “Yield of colony-forming unit cells” value is given as 211* %, the “Yield of CD34+CD45dim cells obtained” value was 185* % and the “Yield of TNC obtained” value is 18%.
On to “natalizumab: recombinant humanized neutralizing IgG4 monoclonal antibody that binds the α4-subunit of α4β1 (VLA-4) and α4β7 integrins”, for which the “Circulating HSPCs” value in experiment [1] is “rapid and sustained increase in circulating HSPCs”.
